Laboratory results as given in US8129534B2, “Chemical compounds” (priority 2004, dated 2012).

With `O=C(Nc1cccnc1C1CCN(C/C=C/c2ccc(Cl)cc2)CC1)c1ccnc(Cl)c1` as the molecule, how does the melting point read?
Its melting point is 78 to 80 °C.

Which melting point does the source give for `O=C(Nc1ccnn1C1CCN(C/C=C/c2ccc(Cl)cc2)CC1)c1ccnc(Cl)c1` here?
The melting point was 69 to 70 °C.

Which melting point does the source give for `O=C(Nc1cccnc1C1=CCN(C/C=C/c2ccc(Cl)cc2)CC1)c1ccnc(Cl)c1` here?
Its melting point is 75 to 77 °C.
